Experimental data taken from ChEMBL document CHEMBL1201862, “PubChem BioAssay data set” (2004).
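A five-concentration, 48-hour dose response in 96-well plates underlies each endpoint, interpolated linearly between surrounding concentrations. Here, GI50 denotes the concentration required for 50% inhibition of growth.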 The source made the active and inactive calls. No stated cut-off is given here; in the data, active = GI50 up to about 1.1 µM and inactive = higher.

Legend:
Assay in all cases: DTP human tumour cell line panel, 48 h
OVCAR-8 = test system: OVCAR-8
SF-268 = test system: SF-268
NCI-H460 = test system: NCI-H460
SW-620 = test system: SW-620
NCI-H226 = test system: NCI-H226
ACHN = test system: ACHN
UACC-62 = test system: UACC-62
COLO 205 = test system: COLO 205
EKVX = test system: EKVX
A549 = test system: A549
CCRF-CEM = test system: CCRF-CEM
OVCAR-5 = test system: OVCAR-5
RXF 393 = test system: RXF 393
HT-29 = test system: HT-29
SK-MEL-2 = test system: SK-MEL-2
U-251 = test system: U-251

Measured: GI50

CC(=O)Nc1ccc(-c2nnc(SCC(=O)Nc3cccc(Cl)c3)o2)cc1
inactive: OVCAR-8 33.2 µM | SF-268 13.7 µM | NCI-H460 13.1 µM | SW-620 13.5 µM | NCI-H226 17.7 µM | ACHN 15.2 µM | UACC-62 15.4 µM | COLO 205 16.6 µM | EKVX 25.3 µM | A549 18.7 µM | CCRF-CEM 6.18 µM | OVCAR-5 20.7 µM | RXF 393 17.4 µM | HT-29 17.2 µM | SK-MEL-2 20 µM | U-251 9.84 µM

COc1ccc(/C=C/c2cc(OC)c(OC)c(OC)c2)cc1OC
inactive: OVCAR-8 > 100 µM | SF-268 > 67.9 µM | NCI-H460 > 100 µM | SW-620 > 100 µM | NCI-H226 > 100 µM | ACHN > 100 µM | UACC-62 > 80.7 µM | COLO 205 > 100 µM | EKVX > 100 µM | A549 > 100 µM | CCRF-CEM > 100 µM | OVCAR-5 > 100 µM | RXF 393 > 63 µM | HT-29 > 72.8 µM | SK-MEL-2 > 100 µM | U-251 > 100 µM

c1ccc2c(c1)N=C(c1cccc3ccccc13)CC(c1cccc3ccccc13)S2 (configuration not stated)
inactive: OVCAR-8 2.96 µM | SF-268 4.42 µM | NCI-H460 3.8 µM | SW-620 2.56 µM | NCI-H226 9.84 µM | ACHN 10.2 µM | UACC-62 5.21 µM | COLO 205 12.9 µM | EKVX 14 µM | A549 9.12 µM | CCRF-CEM 2.05 µM | OVCAR-5 6.9 µM | RXF 393 3.48 µM | HT-29 3.33 µM | SK-MEL-2 14.9 µM | U-251 2.63 µM

CC(=O)NNc1nc(C)c(C(=O)NNC(=O)C(=O)Nc2c(C)cccc2C)s1
inactive: OVCAR-8 26.2 µM | SF-268 33.2 µM | NCI-H460 33 µM | SW-620 42.9 µM | NCI-H226 > 100 µM | ACHN 37.6 µM | UACC-62 33.3 µM | COLO 205 31.8 µM | EKVX 37 µM | A549 42.4 µM | CCRF-CEM 32 µM | OVCAR-5 81.3 µM | RXF 393 32.2 µM | HT-29 36.6 µM | SK-MEL-2 48.9 µM | U-251 43.9 µM

CCOC(=O)c1[nH]c2c(OC)n[n+]([O-])cc2c1[N+](=O)[O-]
inactive: OVCAR-8 19.9 µM | SF-268 32 µM | NCI-H460 21.1 µM | SW-620 15.7 µM | NCI-H226 26.9 µM | ACHN 17.3 µM | UACC-62 19.5 µM | COLO 205 25.1 µM | EKVX 21.3 µM | A549 88.5 µM | CCRF-CEM 26.1 µM | OVCAR-5 19.6 µM | RXF 393 15.8 µM | HT-29 15.9 µM | SK-MEL-2 19.8 µM | U-251 17 µM

Cc1cc(C)nc(NS(=O)(=O)c2ccc(NC(=O)c3cccn4c(=O)c5ccccc5nc34)cc2)n1
inactive: OVCAR-8 27.7 µM | SF-268 51.1 µM | NCI-H460 41.5 µM | SW-620 34.9 µM | NCI-H226 37.6 µM | ACHN > 100 µM | UACC-62 20.5 µM | COLO 205 40.6 µM | EKVX 26.1 µM | A549 > 100 µM | CCRF-CEM 27.5 µM | OVCAR-5 > 100 µM | RXF 393 23.9 µM | HT-29 40.2 µM | SK-MEL-2 > 100 µM | U-251 37.4 µM

CC(NS(=O)(=O)c1ccc([N+](=O)[O-])cc1)C(=O)O (configuration not stated)
inactive: OVCAR-8 > 100 µM | SF-268 > 100 µM | NCI-H460 > 100 µM | SW-620 > 100 µM | NCI-H226 > 100 µM | ACHN > 100 µM | UACC-62 > 100 µM | COLO 205 > 100 µM | EKVX > 100 µM | A549 > 100 µM | CCRF-CEM > 100 µM | OVCAR-5 > 100 µM | RXF 393 > 100 µM | HT-29 > 100 µM | SK-MEL-2 > 100 µM | U-251 > 100 µM
